Results from the supplement of paper PMC6045584.
± gives the standard deviation of the averaged measurements.

Key:
[1] = compound: CS(=O)(=O)CCNCc1ccc(-c2ccc3ncnc(Nc4ccc(OCc5cccc(F)c5)c(Cl)c4)c3c2)o1 [LAPATINIB]; experiment: surviving fraction relative to DMSO-only wells; higher = less growth inhibition; conditions: exposure time: 5 days
In short: (§1)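 Log-phase tumour cell lines, 250–500 cells per well in 384-well plates, received inhibitors at 0.5, 1, 5, 10, 50, 100, 500 and 1000 nM continuously for five days, starting 24 hours after seeding. Viability was quantified with CellTiter-Glo luminescence and normalised to the median of DMSO-only wells to give surviving fraction. Three screens were run per line, and a line stayed in only with replicate Pearson r >0.7 and median Z' >0.3.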

[2] = compound: CN(C)CC[C@H](CSc1ccccc1)Nc1ccc(S(=O)(=O)NC(=O)c2ccc(N3CCN(Cc4ccccc4-c4ccc(Cl)cc4)CC3)cc2)cc1[N+](=O)[O-] [ABT-737]; experiment: as above; conditions: exposure time: 5 days
In short: as §1

Test System | surviving fraction ([1]; 0.5 nM) | surviving fraction ([1]; 1 nM) | surviving fraction ([1]; 5 nM) | surviving fraction ([1]; 10 nM) | surviving fraction ([1]; 50 nM) | surviving fraction ([1]; 100 nM) | surviving fraction ([1]; 500 nM) | surviving fraction ([1]; 1000 nM) | surviving fraction ([2]; 0.5 nM) | surviving fraction ([2]; 1 nM) | surviving fraction ([2]; 5 nM) | surviving fraction ([2]; 10 nM) | surviving fraction ([2]; 50 nM) | surviving fraction ([2]; 100 nM) | surviving fraction ([2]; 500 nM) | surviving fraction ([2]; 1000 nM)
T47D BREAST | 1.01 ± 0.068 | 1.07 ± 0.036 | 1.08 ± 0.072 | 1.07 ± 0.05 | 1.01 ± 0.019 | 1.04 ± 0.05 | 1 ± 0.041 | 1.01 ± 0.017 | 1.13 ± 0.026 | 1.08 ± 0.031 | 1.08 ± 0.08 | 1.08 ± 0.025 | 1.03 ± 0.2 | 1.089 ± 0.0036 | 1.11 ± 0.11 | 1.05 ± 0.035
CHLA90 AUTONOMIC GANGLIA | 0.964 ± 0.031 | 0.99 ± 0.07 | 1.01 ± 0.052 | 0.947 ± 0.051 | 0.965 ± 0.06 | 0.981 ± 0.11 | 0.931 ± 0.073 | 0.875 ± 0.11 | 0.98 ± 0.054 | 0.955 ± 0.068 | 0.961 ± 0.043 | 0.99 ± 0.091 | 1.02 ± 0.064 | 1.01 ± 0.12 | 0.979 ± 0.093 | 0.997 ± 0.13
SCC47 HEADNECK | 1.09 ± 0.1 | 1.1 ± 0.016 | 1.09 ± 0.011 | 1.18 ± 0.033 | 1.05 ± 0.044 | 1.05 ± 0.072 | 0.82 ± 0.041 | 0.705 ± 0.053 | 1.14 ± 0.033 | 1.13 ± 0.13 | 1.23 ± 0.09 | 1.25 ± 0.05 | 1.24 ± 0.087 | 1.2 ± 0.055 | 1.1 ± 0.053 | 1.14 ± 0.12
CASKI CERVIX | 0.884 ± 0.037 | 0.902 ± 0.013 | 0.952 ± 0.042 | 0.818 ± 0.042 | 0.775 ± 0.044 | 0.685 ± 0.021 | 0.426 ± 0.013 | 0.321 ± 0.013 | 0.912 ± 0.075 | 0.896 ± 0.038 | 0.9707 ± 0.0083 | 0.937 ± 0.021 | 1.08 ± 0.015 | 1.06 ± 0.094 | 0.931 ± 0.092 | 0.715 ± 0.026
HU09 BONE | 0.937 ± 0.082 | 0.937 ± 0.031 | 1.04 ± 0.1 | 1.04 ± 0.089 | 1 ± 0.056 | 1.04 ± 0.13 | 0.891 ± 0.043 | 0.798 ± 0.021 | 1.08 ± 0.08 | 1.07 ± 0.12 | 1.1 ± 0.0064 | 1.06 ± 0.065 | 0.988 ± 0.063 | 0.912 ± 0.08 | 0.697 ± 0.031 | 0.617 ± 0.027
SAOS2 BONE | 1.14 ± 0.027 | 1.19 ± 0.066 | 1.24 ± 0.038 | 1.24 ± 0.049 | 1.18 ± 0.065 | 1.24 ± 0.099 | 1.21 ± 0.11 | 1.15 ± 0.22 | 1.18 ± 0.037 | 1.18 ± 0.056 | 1.21 ± 0.098 | 1.19 ± 0.082 | 1.27 ± 0.061 | 1.13 ± 0.059 | 1.14 ± 0.12 | 1.08 ± 0.018
SUM149 BREAST | 0.945 ± 0.078 | 0.988 ± 0.11 | 0.943 ± 0.043 | 0.889 ± 0.12 | 0.741 ± 0.046 | 0.656 ± 0.019 | 0.492 ± 0.018 | 0.424 ± 0.047 | 1.02 ± 0.036 | 1.07 ± 0.023 | 1.1 ± 0.061 | 1.08 ± 0.051 | 0.952 ± 0.058 | 1.07 ± 0.075 | 0.97 ± 0.049 | 0.961 ± 0.056
SYO1 SYNOVIAL | 0.992 ± 0.026 | 1.03 ± 0.08 | 0.976 ± 0.034 | 1.04 ± 0.041 | 0.938 ± 0.033 | 0.976 ± 0.032 | 0.966 ± 0.026 | 0.975 ± 0.021 | 1.03 ± 0.048 | 1.039 ± 0.01 | 1.03 ± 0.07 | 1.025 ± 0.0082 | 1.04 ± 0.08 | 0.984 ± 0.048 | 0.752 ± 0.03 | 0.504 ± 0.024
DU4475 BREAST | 0.907 ± 0.062 | 1.1 ± 0.13 | 1.02 ± 0.079 | 0.944 ± 0.017 | 1.07 ± 0.12 | 0.957 ± 0.11 | 1.14 ± 0.11 | 0.932 ± 0.025 | 0.935 ± 0.13 | 0.973 ± 0.042 | 0.943 ± 0.13 | 0.865 ± 0.1 | 0.797 ± 0.13 | 0.715 ± 0.012 | 0.373 ± 0.067 | 0.203 ± 0.047
JIMT1 BREAST | 0.991 ± 0.035 | 1.02 ± 0.04 | 1.05 ± 0.039 | 1.01 ± 0.024 | 1 ± 0.035 | 1.01 ± 0.066 | 0.907 ± 0.065 | 0.783 ± 0.019 | 1.02 ± 0.048 | 1.05 ± 0.016 | 1.019 ± 0.0045 | 1.018 ± 0.0065 | 1.04 ± 0.037 | 1.07 ± 0.06 | 1.06 ± 0.054 | 1.08 ± 0.032
ASKA SYNOVIAL | 1.17 ± 0.046 | 1.1 ± 0.012 | 1.13 ± 0.045 | 1.16 ± 0.053 | 1.21 ± 0.092 | 1.19 ± 0.069 | 1.16 ± 0.1 | 1.15 ± 0.068 | 1.15 ± 0.031 | 1.19 ± 0.044 | 1.2 ± 0.027 | 1.16 ± 0.047 | 1.1 ± 0.05 | 1.11 ± 0.076 | 0.914 ± 0.084 | 0.79 ± 0.066
H23 LUNG | 1.02 ± 0.071 | 1.1 ± 0.075 | 0.9837 ± 0.0059 | 1.01 ± 0.019 | 0.861 ± 0.039 | 0.834 ± 0.031 | 0.4077 ± 0.0038 | 0.367 ± 0.023 | 1.01 ± 0.043 | 1.06 ± 0.077 | 1.05 ± 0.066 | 1.06 ± 0.017 | 1.07 ± 0.067 | 1.1 ± 0.087 | 1.08 ± 0.065 | 1.048 ± 0.004
SG27 HEADNECK | 1.09 ± 0.081 | 1.09 ± 0.056 | 1.1 ± 0.27 | 1.18 ± 0.17 | 0.977 ± 0.14 | 1.04 ± 0.067 | 0.988 ± 0.026 | 1.06 ± 0.06 | 1.26 ± 0.26 | 1.12 ± 0.12 | 1.19 ± 0.029 | 1.16 ± 0.079 | 1.15 ± 0.11 | 1.08 ± 0.13 | 0.88 ± 0.11 | 0.797 ± 0.059
BT549 BREAST | 1.1 ± 0.073 | 1.01 ± 0.081 | 0.971 ± 0.044 | 1.06 ± 0.043 | 1.07 ± 0.1 | 1.03 ± 0.054 | 1.15 ± 0.14 | 0.977 ± 0.085 | 0.996 ± 0.018 | 0.867 ± 0.047 | 1.12 ± 0.075 | 0.782 ± 0.043 | 1.12 ± 0.029 | 0.771 ± 0.095 | 1.04 ± 0.16 | 0.841 ± 0.097
SG43 HEADNECK | 0.869 ± 0.17 | 0.93 ± 0.22 | 0.84 ± 0.095 | 0.821 ± 0.067 | 0.711 ± 0.23 | 0.494 ± 0.12 | 0.304 ± 0.011 | 0.314 ± 0.13 | 0.947 ± 0.12 | 1.06 ± 0.25 | 0.889 ± 0.076 | 0.875 ± 0.057 | 0.769 ± 0.14 | 0.801 ± 0.069 | 0.656 ± 0.24 | 0.752 ± 0.34
MDAMB157 BREAST | 1 ± 0.11 | 0.991 ± 0.11 | 1.09 ± 0.034 | 1.04 ± 0.095 | 1.01 ± 0.064 | 1.008 ± 0.0098 | 0.951 ± 0.082 | 0.931 ± 0.041 | 1.02 ± 0.026 | 0.995 ± 0.13 | 0.952 ± 0.069 | 0.964 ± 0.062 | 1.01 ± 0.032 | 1.01 ± 0.057 | 0.938 ± 0.028 | 0.893 ± 0.059
SJSA1 BONE | 1.471 ± 0.007 | 1.67 ± 0.035 | 1.67 ± 0.09 | 1.72 ± 0.04 | 1.62 ± 0.095 | 1.47 ± 0.077 | 1.42 ± 0.022 | 1.75 ± 0.037 | 1.59 ± 0.063 | 1.68 ± 0.045 | 1.63 ± 0.06 | 1.72 ± 0.049 | 1.66 ± 0.078 | 1.81 ± 0.12 | 1.74 ± 0.045 | 1.81 ± 0.14
CAL120 BREAST | 1.02 ± 0.052 | 1.03 ± 0.044 | 1.02 ± 0.043 | 1 ± 0.039 | 1.04 ± 0.042 | 1.03 ± 0.075 | 0.998 ± 0.052 | 0.994 ± 0.045 | 0.984 ± 0.03 | 0.9688 ± 0.0083 | 0.981 ± 0.051 | 0.984 ± 0.061 | 0.997 ± 0.018 | 0.998 ± 0.038 | 0.992 ± 0.012 | 0.773 ± 0.11
SKBR3 BREAST | 1.07 ± 0.057 | 1.06 ± 0.04 | 1.12 ± 0.12 | 1.01 ± 0.054 | 0.697 ± 0.026 | 0.508 ± 0.03 | 0.233 ± 0.014 | 0.171 ± 0.021 | 1.04 ± 0.035 | 1.03 ± 0.07 | 0.988 ± 0.13 | 1.19 ± 0.13 | 0.976 ± 0.071 | 1.15 ± 0.09 | 1.01 ± 0.14 | 1.13 ± 0.13
A549 LUNG | 1.038 ± 0.0095 | 1.14 ± 0.044 | 1.06 ± 0.02 | 1.07 ± 0.016 | 1.02 ± 0.043 | 1.06 ± 0.05 | 1 ± 0.041 | 1.02 ± 0.036 | 1.06 ± 0.012 | 1.05 ± 0.022 | 1.07 ± 0.023 | 1.06 ± 0.03 | 1.07 ± 0.039 | 1.09 ± 0.039 | 1.12 ± 0.044 | 1.05 ± 0.053
